In ChEMBL document CHEMBL1139907, “Further studies on hepatitis C virus NS5B RNA-dependent RNA polymerase inhibitors toward improved replicon cell activities: benzimidazole and structurally related compounds bearing the 2-morpholinophenyl moiety” (Bioorg Med Chem Lett, 2007):

Tests used:
[1] = Inhibition of HCV NS5B polymerase; design: species or system Hepacivirus hominis
Hepatitis C virus = assay: Antiviral activity against HCV in Huh-5-2 cells by replicon assay; type: functional, organism-based, Hepacivirus hominis
[2] = Cytotoxicity against Huh-5-2 cells; type: cell-based; conditions: human
Hepacivirus hominis = assay: Ratio of EC50 of HCV to IC50 for HCV NS5B polymerase

IC50 [1] | EC50 (Hepatitis C virus) | Structure (SMILES) | CC50 [2] | Ratio (Hepacivirus hominis)
90 nM | 580 nM | O=C(O)c1ccc2c(c1)nc(-c1ccc(OCc3cc(N4CCCCC4=O)ccc3N3CCOCC3)cc1F)n2C1CCCCC1 | > 20000 nM | 6.4
130 nM | 1000 nM | O=C(O)c1ccc2c(c1)nc(-c1ccc(OCc3ccccc3N3CCOCC3)cc1F)n2C1CCCCC1 | > 20000 nM | 7.7
70 nM | 910 nM | CC(=O)Nc1ccc(N2CCOCC2)c(COc2ccc(-c3nc4cc(C(=O)O)ccc4n3C3CCCCC3)c(F)c2)c1 | > 20000 nM | 13
130 nM | 1100 nM | CN1CCN(c2ccc(N3CCCC3=O)cc2COc2ccc(-c3nc4cc(C(=O)O)ccc4n3C3CCCCC3)c(F)c2)CC1 | > 20000 nM | 8.5
19 nM | 60 nM | O=C(O)c1ccc2c(C3CCCCC3)c3n(c2c1)CCOc1cc(OCc2cc(N4CCCC4=O)ccc2-c2ccc(Cl)cc2)ccc1-3 | > 20000 nM | 3.1
– | – | O=C(O)c1ccc2c(c1)nc(-c1ccc(OCc3cc(N4CCCC4=O)ccc3-c3ccc(Cl)cc3)cc1F)n2C1CCCCC1 | > 20000 nM | 19
7.2 nM | 52 nM | Cn1c(-c2ccc(OCc3cc(N4CCCC4=O)ccc3N3CCOCC3)cc2)c(C2CCCCC2)c2ccc(C(=O)O)cc21 | > 20000 nM | 7.2
99 nM | 1200 nM | COCC(=O)N(C)c1ccc(N2CCOCC2)c(COc2ccc(-c3nc4cc(C(=O)O)ccc4n3C3CCCCC3)c(F)c2)c1 | > 20000 nM | 12
180 nM | 3500 nM | O=C(O)c1ccc2c(c1)nc(-c1ccc(OCc3cc(N4CCCC4=O)ccc3N3CCC(C(=O)O)CC3)cc1F)n2C1CCCCC1 | > 20000 nM | 19
1000 nM | > 30000 nM | O=C(O)c1ccc2c(c1)nc(-c1ccc(OCc3cc(N4CCCC4=O)ccc3N3CCOCC3=O)cc1F)n2C1CCCCC1 | > 20000 nM | > 30
42 nM | 270 nM | CC(=O)N(c1ccc(N2CCOCC2)c(COc2ccc(-c3nc4cc(C(=O)O)ccc4n3C3CCCCC3)c(F)c2)c1)C(C)C | > 20000 nM | 6.4
51 nM | 370 nM | CC(=O)N(C)c1ccc(N2CCOCC2)c(COc2ccc(-c3nc4cc(C(=O)O)ccc4n3C3CCCCC3)c(F)c2)c1 | > 20000 nM | 7.3
48 nM | 380 nM | CC(C)NC(=O)c1ccc(N2CCOCC2)c(COc2ccc(-c3nc4cc(C(=O)O)ccc4n3C3CCCCC3)c(F)c2)c1 | > 20000 nM | 7.9
100 nM | 1200 nM | O=C(O)c1ccc2c(c1)nc(-c1ccc(OCc3cc(Cl)ccc3N3CCOCC3)cc1F)n2C1CCCCC1 | > 20000 nM | 12
410 nM | 1400 nM | COc1ccc(N2CCCC2=O)cc1COc1ccc(-c2nc3cc(C(=O)O)ccc3n2C2CCCCC2)c(F)c1 | > 20000 nM | 3.4
71 nM | 550 nM | O=C(O)c1ccc2c(c1)nc(-c1ccc(OCc3cc(N4CCCS4(=O)=O)ccc3N3CCOCC3)cc1F)n2C1CCCCC1 | > 20000 nM | 7.7
7.2 nM | 7.6 nM | O=C(O)c1ccc2c(C3CCCCC3)c3n(c2c1)CCOc1cc(OCc2cc(N4CCCC4=O)ccc2N2CCOCC2)ccc1-3 | > 20000 nM | 1.1
230 nM | 3100 nM | O=C(O)c1ccc2c(c1)nc(-c1ccc(OCc3cc(N4CCCC4=O)ccc3Oc3ccc(Cl)cc3)cc1F)n2C1CCCCC1 | > 20000 nM | 13
150 nM | 1400 nM | O=C(O)c1ccc2c(c1)nc(-c1ccc(OCc3cc(N4CCCC4=O)ccc3N3CCC(O)CC3)cc1F)n2C1CCCCC1 | > 20000 nM | 9.3
30 nM | 210 nM | O=C(O)c1ccc2c(c1)cc(-c1ccc(OCc3cc(N4CCCC4=O)ccc3N3CCOCC3)cc1)n2C1CCCCC1 | > 20000 nM | 7
68 nM | 440 nM | CN(C)C(=O)c1ccc(N2CCOCC2)c(COc2ccc(-c3nc4cc(C(=O)O)ccc4n3C3CCCCC3)c(F)c2)c1 | > 20000 nM | 6.5
260 nM | 1300 nM | COCCN(C)c1ccc(N2CCCC2=O)cc1COc1ccc(-c2nc3cc(C(=O)O)ccc3n2C2CCCCC2)c(F)c1 | > 20000 nM | 5
110 nM | 950 nM | CC(=O)N1CCN(c2ccc(N3CCCC3=O)cc2COc2ccc(-c3nc4cc(C(=O)O)ccc4n3C3CCCCC3)c(F)c2)CC1 | > 20000 nM | 8.6
150 nM | 800 nM | O=C(O)c1ccc2c(c1)nc(-c1ccc(OCc3cc(N4CCCC4=O)ccc3N3CCCCC3)cc1F)n2C1CCCCC1 | > 20000 nM | 5.3
66 nM | 310 nM | O=C(O)c1ccc2c(c1)nc(-c1ccc(OCc3cc(N4CCCC4=O)ccc3N3CCOCC3)cc1F)n2C1CCCCC1 | > 20000 nM | 4.7
